Test results as given in the NIST ThermoML archive (doi:10.1021/acs.jced.8b00537).

Experiment: xn = mol fraction of the nth substance listed
Conditions: 100 kPa, Liquid; for viscosity: Capillary tube (Ostwald / Ubbelohde) method; for speed of sound: Frequency=3 MHz, Single path-length method; for mass density: Vibrating tube method

O=S(=O)([N-]S(=O)(=O)C(F)(F)F)C(F)(F)F.On1cc[n+](O)c1 [1,3-dihydroxyimidazolium bis(trifluoromethylsulfonyl)imide] + CCCO
Conditions | mass density [kg/m3] | speed of sound [m/s] | viscosity [mPa·s]
293.15 K, x1 = 0.0999 | 1039 | 1192.5 | 6.428
293.15 K, x1 = 0.1994 | 1207 | 1175.2 | 10.56
293.15 K, x1 = 0.2993 | 1333 | 1166.5 | 18.74
293.15 K, x1 = 0.3992 | 1430 | 1167 | 31.05
293.15 K, x1 = 0.4985 | 1510 | 1170.2 | 46.71
293.15 K, x1 = 0.5999 | 1576 | 1175.3 | 65.75
293.15 K, x1 = 0.6989 | 1631 | 1182.6 | 99.34
293.15 K, x1 = 0.7996 | 1680 | 1190.1 | 120.22
293.15 K, x1 = 0.8973 | 1719 | 1198.4 | 184.26
293.15 K, x1 = 1 | 1746 | 1208.2 | 238.6
298.15 K, x1 = 0.0999 | 1034 | 1177.8 | 5.606
298.15 K, x1 = 0.1994 | 1202 | 1161.9 | 9.087
298.15 K, x1 = 0.2993 | 1328 | 1154 | 15.55
298.15 K, x1 = 0.3992 | 1425 | 1155 | 25.3
298.15 K, x1 = 0.4985 | 1505 | 1158.3 | 37.27
298.15 K, x1 = 0.5999 | 1570 | 1163.5 | 51.4
298.15 K, x1 = 0.6989 | 1625 | 1171 | 76.1
298.15 K, x1 = 0.7996 | 1674 | 1178.4 | 90.44
298.15 K, x1 = 0.8973 | 1713 | 1186.7 | 135.12
298.15 K, x1 = 1 | 1740 | 1196.6 | 171.83
303.15 K, x1 = 0.0999 | 1030 | 1163.2 | 4.921
303.15 K, x1 = 0.1994 | 1197 | 1148.7 | 7.864
303.15 K, x1 = 0.2993 | 1323 | 1141.6 | 13.07
303.15 K, x1 = 0.3992 | 1419 | 1143.1 | 20.93
303.15 K, x1 = 0.4985 | 1499 | 1146.7 | 30.21
303.15 K, x1 = 0.5999 | 1564 | 1152 | 40.94
303.15 K, x1 = 0.6989 | 1620 | 1159.5 | 59.33
303.15 K, x1 = 0.7996 | 1668 | 1166.9 | –
303.15 K, x1 = 0.8973 | 1707 | 1175.2 | 101.71
303.15 K, x1 = 1 | 1735 | 1185.2 | 127.52
308.15 K, x1 = 0.0999 | 1025 | 1148.9 | 4.34
308.15 K, x1 = 0.1994 | 1192 | 1135.7 | 6.844
308.15 K, x1 = 0.2993 | 1318 | 1129.4 | 11.09
308.15 K, x1 = 0.3992 | 1414 | 1131.4 | 17.59
308.15 K, x1 = 0.4985 | 1494 | 1135.2 | 24.91
308.15 K, x1 = 0.5999 | 1559 | 1140.7 | 33.19
308.15 K, x1 = 0.6989 | 1614 | 1148.3 | 47.17
308.15 K, x1 = 0.7996 | 1662 | 1155.7 | 54.77
308.15 K, x1 = 0.8973 | 1702 | 1164 | 78.32
308.15 K, x1 = 1 | 1729 | 1174.1 | 96.92
313.15 K, x1 = 0.0999 | 1020 | 1134.6 | 3.849
313.15 K, x1 = 0.1994 | 1187 | 1122.8 | 5.991
313.15 K, x1 = 0.2993 | 1313 | 1117.3 | 9.541
313.15 K, x1 = 0.3992 | 1409 | 1119.8 | 14.92
313.15 K, x1 = 0.4985 | 1489 | 1123.9 | 20.85
313.15 K, x1 = 0.5999 | 1553 | 1129.5 | 27.38
313.15 K, x1 = 0.6989 | 1608 | 1137.2 | 37.93
313.15 K, x1 = 0.7996 | 1657 | 1144.6 | 43.92
313.15 K, x1 = 0.8973 | 1696 | 1153 | 61.38
313.15 K, x1 = 1 | 1723 | 1163.1 | 75.56
318.15 K, x1 = 0.0999 | 1016 | 1120.5 | 3.434
318.15 K, x1 = 0.1994 | 1182 | 1110.1 | 5.275
318.15 K, x1 = 0.2993 | 1308 | 1105.4 | 8.279
318.15 K, x1 = 0.3992 | 1404 | 1108.3 | 12.81
318.15 K, x1 = 0.4985 | 1483 | 1112.7 | 17.64
318.15 K, x1 = 0.5999 | 1548 | 1118.5 | 22.86
318.15 K, x1 = 0.6989 | 1603 | 1126.3 | 31.31
318.15 K, x1 = 0.7996 | 1651 | 1133.7 | 35.76
318.15 K, x1 = 0.8973 | 1690 | 1142.1 | 49.13
318.15 K, x1 = 1 | 1717 | 1152.3 | 59.8
323.15 K, x1 = 0.0999 | 1011 | 1106.4 | 3.072
323.15 K, x1 = 0.1994 | 1178 | 1097.4 | 4.675
323.15 K, x1 = 0.2993 | 1303 | 1093.6 | 7.234
323.15 K, x1 = 0.3992 | 1398 | 1097 | 11.09
323.15 K, x1 = 0.4985 | 1478 | 1101.6 | 15.11
323.15 K, x1 = 0.5999 | 1542 | 1107.6 | 19.34
323.15 K, x1 = 0.6989 | 1597 | 1115.5 | 25.89
323.15 K, x1 = 0.7996 | 1645 | 1123 | 29.52
323.15 K, x1 = 0.8973 | 1684 | 1131.4 | 39.97
323.15 K, x1 = 1 | 1711 | 1141.6 | 48.29
328.15 K, x1 = 0.0999 | 1006 | 1092.4 | 2.759
328.15 K, x1 = 0.1994 | 1173 | 1084.9 | 4.171
328.15 K, x1 = 0.2993 | 1298 | 1082 | 6.368
328.15 K, x1 = 0.3992 | 1393 | 1085.8 | 9.679
328.15 K, x1 = 0.4985 | 1472 | 1090.7 | 13.05
328.15 K, x1 = 0.5999 | 1537 | 1096.8 | 16.53
328.15 K, x1 = 0.6989 | 1592 | 1104.8 | 21.88
328.15 K, x1 = 0.7996 | 1640 | 1112.3 | 24.73
328.15 K, x1 = 0.8973 | 1679 | 1120.8 | 32.99
328.15 K, x1 = 1 | 1705 | 1131.1 | 39.57
333.15 K, x1 = 0.0999 | 1002 | 1078.5 | 2.491
333.15 K, x1 = 0.1994 | 1168 | 1072.4 | 3.742
333.15 K, x1 = 0.2993 | 1293 | 1070.4 | 5.644
333.15 K, x1 = 0.3992 | 1388 | 1074.7 | 8.509
333.15 K, x1 = 0.4985 | 1467 | 1080 | 11.37
333.15 K, x1 = 0.5999 | 1532 | 1086.1 | 14.29
333.15 K, x1 = 0.6989 | 1586 | 1094.2 | 18.68
333.15 K, x1 = 0.7996 | 1634 | 1101.8 | 20.94
333.15 K, x1 = 0.8973 | 1673 | 1110.3 | 27.57
333.15 K, x1 = 1 | 1700 | 1120.7 | 32.88
338.15 K, x1 = 0.0999 | 997 | 1064.5 | 2.255
338.15 K, x1 = 0.1994 | 1163 | 1060.1 | 3.375
338.15 K, x1 = 0.2993 | 1288 | 1059 | 5.034
338.15 K, x1 = 0.3992 | 1383 | 1063.7 | 7.522
338.15 K, x1 = 0.4985 | 1462 | 1069.3 | 9.989
338.15 K, x1 = 0.5999 | 1526 | 1075.6 | 12.46
338.15 K, x1 = 0.6989 | 1581 | 1083.8 | 16.12
338.15 K, x1 = 0.7996 | 1628 | 1091.5 | 17.87
338.15 K, x1 = 0.8973 | 1667 | 1100 | 23.34
338.15 K, x1 = 1 | 1694 | 1110.4 | 27.69
343.15 K, x1 = 0.0999 | 992 | 1050.7 | 2.051
343.15 K, x1 = 0.1994 | 1158 | 1048 | 3.057
343.15 K, x1 = 0.2993 | 1283 | 1047.8 | 4.514
343.15 K, x1 = 0.3992 | 1378 | 1052.8 | 6.692
343.15 K, x1 = 0.4985 | 1456 | 1058.9 | 8.831
343.15 K, x1 = 0.5999 | 1521 | 1065.1 | 10.95
343.15 K, x1 = 0.6989 | 1575 | 1073.5 | 14.03
343.15 K, x1 = 0.7996 | 1623 | 1081.2 | 15.41
343.15 K, x1 = 0.8973 | 1662 | 1089.8 | 19.94
343.15 K, x1 = 1 | 1688 | 1100.2 | 23.59
